# Publication PMC12281424, “A Rac-specific competitive inhibitor of guanine nucleotide binding reduces metastasis in triple-negative breast cancer” (Cell Reports Medicine, 2025)
# Tests used:
# LOK(h) = LOK(h) (Homo sapiens, UniProt O94804); experiment: Kinase Profiler; format: biochemical
# Procedure: (§1) The kinase profiler was performed by the company Eurofins (Discovery, Panlab and Cerep).
# CaMKIIδ(h) = CaMKIIδ(h) (Homo sapiens, UniProt Q13557); experiment: Kinase Profiler; format: biochemical
# Procedure: as §1
# B-Raf(h) = B-Raf(h) (Homo sapiens, UniProt P15056); experiment: Kinase Profiler; format: biochemical
# Chain of B-Raf(h) (P15056 whole entry): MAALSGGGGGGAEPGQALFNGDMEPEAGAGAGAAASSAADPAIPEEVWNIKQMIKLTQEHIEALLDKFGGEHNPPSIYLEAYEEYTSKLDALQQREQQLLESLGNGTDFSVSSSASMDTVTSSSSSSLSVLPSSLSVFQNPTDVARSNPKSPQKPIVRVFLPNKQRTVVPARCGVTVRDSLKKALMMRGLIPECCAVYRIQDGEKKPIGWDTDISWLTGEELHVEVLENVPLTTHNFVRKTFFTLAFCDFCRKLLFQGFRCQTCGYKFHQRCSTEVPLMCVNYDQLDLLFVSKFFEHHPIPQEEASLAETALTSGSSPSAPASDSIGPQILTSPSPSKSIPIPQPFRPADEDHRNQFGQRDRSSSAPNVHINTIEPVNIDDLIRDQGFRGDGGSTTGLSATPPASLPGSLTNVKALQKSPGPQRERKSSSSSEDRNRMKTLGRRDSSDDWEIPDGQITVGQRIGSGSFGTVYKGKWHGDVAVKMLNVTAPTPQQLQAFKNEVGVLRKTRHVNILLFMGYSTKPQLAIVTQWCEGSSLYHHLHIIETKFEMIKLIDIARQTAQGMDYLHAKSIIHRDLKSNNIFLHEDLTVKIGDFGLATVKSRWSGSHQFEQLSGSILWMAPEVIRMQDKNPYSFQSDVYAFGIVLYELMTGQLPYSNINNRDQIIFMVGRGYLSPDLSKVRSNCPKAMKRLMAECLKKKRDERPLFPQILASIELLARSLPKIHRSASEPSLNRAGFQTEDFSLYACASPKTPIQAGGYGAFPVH
# Procedure: (§2) Blood cell counts, kinase profiler, safety screen, bacterial cytotoxicity, Ames, micronucleus assays were performed by the company Eurofins (France). The kinase profiler was performed by the company Eurofins (Discovery, Panlab and Cerep).
# RAC1 = RAC1 (Homo sapiens, UniProt P63000); experiment: Nucleotide exchange kinetics (mant-GTP/mant-GDP fluorescence); format: biochemical; set-up: Full-length RAC1 carrying a 6xHis tag in C-terminus was purified as previously described; 6xHis (C); made in house
# Procedure: Figure 2 Identification of a new RAC1 inhibitor (A) Effect of A41 and NSC23766 on ruffle formation (white arrows) induced by EGF (10 ng/mL) in NIH 3T3 cells in serum-free culture medium (CTL). Inhibitors were added at indicated concentration 1 h prior to EGF stimulation. To assess cytoskeleton organization, cells were incubated with Alexa Fluor 488 phalloidin to visualize F-actin. Results shown are representative of 3 independent experiments. Corresponding concentration-response curves have been established by counting the percentages of cells with ruffles (scale bars: 10 μm). (B) Immunoblot analysis and associated quantification of RAC-GTP level and total RAC expression in NIH 3T3 cells stimulated by EGF (10 ng/mL, 5 min) and pre-incubated or not (−) with NSC23766, A41, or A415 at 10^−5 M for 1 h (∗∗∗p < 0.001 vs. controls without EGF stimulation, ^###p < 0.001 vs. controls with EGF stimulation) (N > 3). (C) Representative surface plasmon resonance (SPR) sensograms of binding of immobilized RAC1 with increasing concentrations of A41 with or without EDTA (20 mM) (N > 3). (D) Representative in vitro nucleotide exchange catalyzed by the DH-PH of TIAM (10 nM) measured by the binding of fluorescent mant-GTP (1 μM) to RAC1 (0.5 μM, preloaded with GDP) in the presence of indicated concentrations of A41 (out of N = 6). Dotted lines correspond to the experimental curves, and continuous lines represent the fit of experimental points. (E) Kobs and Kmax were determined in each condition (N = 6). (F) Predicted binding modes of A4 to the NSC23766-binding site (left) or the GDP-binding pocket of RAC1 (right). In the NSC23766-binding site of RAC1, the compound A4 (carbon atoms in blue) makes 2 hydrogen bonds (green dotted line) with Ser71 (S71) and 10 hydrophobic interactions (pink dotted line) with Ala3 (A3), Lys5 (K5), Val36 (V36), Trp56 (W56), Tyr64 (Y64), and Leu67 (L67) leading to a docking score of −6.03 kcal/mol. The GDP molecule is shown with fine line. The P loop is shown in yellow, the switch 1 in orange, and the switch 2 in green. In the GDP-binding pocket, A4 establishes 6 hydrogen bonds with Gly15 (G15), Lys16 (K16), Cys18 (C18), and Lys116 (K116), 1 carbon hydrogen bond with Lys116, and 9 hydrophobic interactions with Cys18, Ile33 (I33), Lys116, Leu119 (L119), and Leu160 (L160), resulting in a docking score of −10.32 kcal/mol.
# Figure 3 Inhibitory mechanism of A41 (A–D) RAC1 activity was monitored by the change in mant-GTP/GDP fluorescence induced by its binding to or releasing from RAC1 (A–D). GDP-bound RAC1 (0.5 μM) was incubated with TRIO (10 nM) and the indicated concentrations of mant-GTP without and with A41 (5 μM) (A–C). Mant-GDP-bound RAC1 (0.5 μM) was incubated with TRIO (10 nM) and GTP (1 μM) without and with A41 (5 μM) (D). AU: arbitrary fluorescence units. All experiments were done in triplicate. Kmax and Kmin are expressed as mean ± SEM. ∗∗p < 0.01 and ∗∗∗p < 0.001 vs. TRIO. (E) Deconvoluted mass spectra generated from crude mass spectrum analyses to evaluate RAC1 photolabeling with [N3]-A41 by LC-HRMS on native protein. (F) Representative mass spectra of both labeled and unlabeled […] peptide during LC-HRMS analysis of RAC1 photolabeling with [N3]-A41 after trypsin digestion. (G) Predicted binding mode of A41 to the GDP-binding pocket of RAC1. Compound A41 (orange) makes 4 hydrogen bonds (green dotted line) with Lys16 (K16), Cys18 (C18), and Lys116 (K116), 2 carbon hydrogen bond (light green dotted line) with Val14 (V14) and Lys116 (K116), and 7 hydrophobic interactions (pink dotted line) with Cys18 (C18), Phe28 (F28), Lys116 (K116), Ala159 (A159), and Leu160 (L160). The P loop is shown in yellow, the switch 1 in orange, and the switch 2 in green.
# Full-length RAC1 carrying a 6xHis tag in C-terminus was purified as previously described.[64] Full-length RAC2, RHOG, RHOA and CDC42 were purified as previously described.[64]^,[65] […]
# NEK7(h) = NEK7(h) (Homo sapiens, UniProt Q8TDX7); experiment: Kinase Profiler; format: biochemical
# Chain of NEK7(h) (Q8TDX7 whole entry): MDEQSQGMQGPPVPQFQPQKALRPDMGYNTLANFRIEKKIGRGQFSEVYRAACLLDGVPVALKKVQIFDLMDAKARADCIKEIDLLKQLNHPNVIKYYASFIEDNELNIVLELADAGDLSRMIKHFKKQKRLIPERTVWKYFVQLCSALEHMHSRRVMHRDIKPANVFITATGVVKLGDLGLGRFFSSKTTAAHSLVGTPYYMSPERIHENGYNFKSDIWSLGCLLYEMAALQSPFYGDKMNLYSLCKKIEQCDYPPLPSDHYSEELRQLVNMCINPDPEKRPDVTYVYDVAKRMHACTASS
# Procedure: as §1
# EphA7(h) = EphA7(h) (Homo sapiens, UniProt Q15375); experiment: Kinase Profiler; format: biochemical
# Chain of EphA7(h) (Q15375 28-998): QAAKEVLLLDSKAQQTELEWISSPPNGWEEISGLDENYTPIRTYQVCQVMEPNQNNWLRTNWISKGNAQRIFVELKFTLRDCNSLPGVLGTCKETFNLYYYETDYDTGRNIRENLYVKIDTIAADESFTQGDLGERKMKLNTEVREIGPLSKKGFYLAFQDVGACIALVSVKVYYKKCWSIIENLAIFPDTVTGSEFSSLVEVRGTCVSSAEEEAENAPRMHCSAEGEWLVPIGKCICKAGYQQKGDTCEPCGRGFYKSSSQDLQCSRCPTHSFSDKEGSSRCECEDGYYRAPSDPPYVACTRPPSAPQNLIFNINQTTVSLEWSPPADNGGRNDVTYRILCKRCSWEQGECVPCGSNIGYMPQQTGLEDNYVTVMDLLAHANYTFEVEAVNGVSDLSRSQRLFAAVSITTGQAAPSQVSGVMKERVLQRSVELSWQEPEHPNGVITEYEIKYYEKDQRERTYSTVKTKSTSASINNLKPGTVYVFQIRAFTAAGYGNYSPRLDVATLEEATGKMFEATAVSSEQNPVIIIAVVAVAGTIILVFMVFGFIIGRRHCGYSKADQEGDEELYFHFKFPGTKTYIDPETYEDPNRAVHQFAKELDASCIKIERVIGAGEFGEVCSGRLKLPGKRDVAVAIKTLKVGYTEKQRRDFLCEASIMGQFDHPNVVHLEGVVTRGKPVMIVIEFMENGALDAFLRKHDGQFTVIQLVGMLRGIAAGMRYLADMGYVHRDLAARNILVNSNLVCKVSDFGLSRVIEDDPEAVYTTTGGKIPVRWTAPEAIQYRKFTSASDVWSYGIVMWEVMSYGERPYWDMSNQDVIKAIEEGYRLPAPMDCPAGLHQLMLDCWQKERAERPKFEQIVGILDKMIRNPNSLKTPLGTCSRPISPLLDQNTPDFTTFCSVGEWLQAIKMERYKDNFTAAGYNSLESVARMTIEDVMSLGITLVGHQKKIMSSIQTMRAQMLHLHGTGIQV
# Procedure: as §2
# Adrenergic α2A = Adrenergic α2A (Homo sapiens, UniProt P08913); experiment: Safety screen; format: binding
# Chain of Adrenergic α2A (P08913 whole entry): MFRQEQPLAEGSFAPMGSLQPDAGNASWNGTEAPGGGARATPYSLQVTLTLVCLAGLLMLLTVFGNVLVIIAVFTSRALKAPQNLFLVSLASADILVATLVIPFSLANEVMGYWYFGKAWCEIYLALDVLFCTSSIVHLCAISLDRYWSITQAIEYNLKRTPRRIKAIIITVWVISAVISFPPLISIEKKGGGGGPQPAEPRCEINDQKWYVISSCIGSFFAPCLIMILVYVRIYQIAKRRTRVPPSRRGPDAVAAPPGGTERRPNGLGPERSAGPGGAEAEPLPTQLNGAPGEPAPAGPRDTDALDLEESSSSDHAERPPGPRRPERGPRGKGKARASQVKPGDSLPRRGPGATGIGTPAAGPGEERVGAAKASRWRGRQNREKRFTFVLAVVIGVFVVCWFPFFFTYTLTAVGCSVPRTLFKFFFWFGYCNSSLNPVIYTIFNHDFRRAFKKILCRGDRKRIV
# Procedure: (§3) Blood cell counts, kinase profiler, safety screen, bacterial cytotoxicity, Ames, micronucleus assays were performed by the company Eurofins (France).
# Opiate δ1 (OP1, DOP) = Opiate δ1 (OP1, DOP) (Homo sapiens, UniProt P41143); experiment: Safety screen; format: binding
# Chain of Opiate δ1 (OP1, DOP) (P41143 whole entry): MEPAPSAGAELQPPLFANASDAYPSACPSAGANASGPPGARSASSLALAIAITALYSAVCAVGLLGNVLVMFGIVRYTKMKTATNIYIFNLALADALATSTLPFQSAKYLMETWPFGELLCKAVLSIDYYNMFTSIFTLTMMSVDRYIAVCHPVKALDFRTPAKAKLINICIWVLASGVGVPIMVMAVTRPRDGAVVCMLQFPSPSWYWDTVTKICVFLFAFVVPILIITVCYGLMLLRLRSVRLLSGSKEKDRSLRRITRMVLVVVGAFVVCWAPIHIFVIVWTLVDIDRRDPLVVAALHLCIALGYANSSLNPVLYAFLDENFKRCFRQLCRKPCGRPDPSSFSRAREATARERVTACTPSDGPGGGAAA
# Procedure: as §3
# PrKX(h) = PrKX(h) (Homo sapiens, UniProt P51817); experiment: Kinase Profiler; format: biochemical
# Chain of PrKX(h) (P51817 whole entry): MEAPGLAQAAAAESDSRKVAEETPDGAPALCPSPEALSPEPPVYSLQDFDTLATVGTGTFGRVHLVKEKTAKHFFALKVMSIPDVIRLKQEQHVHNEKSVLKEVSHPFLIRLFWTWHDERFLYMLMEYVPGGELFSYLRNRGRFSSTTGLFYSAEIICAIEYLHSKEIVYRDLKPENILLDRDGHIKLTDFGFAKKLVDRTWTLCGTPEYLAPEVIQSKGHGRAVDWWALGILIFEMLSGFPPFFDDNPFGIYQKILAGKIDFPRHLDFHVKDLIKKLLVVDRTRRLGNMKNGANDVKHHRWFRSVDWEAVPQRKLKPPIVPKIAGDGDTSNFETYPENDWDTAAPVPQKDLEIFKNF
# Procedure: as §1
# MAPK2(m) = MAPK2(m) (Mus musculus, UniProt P63085); experiment: Kinase Profiler; format: biochemical
# Chain of MAPK2(m) (P63085 2-358 limits assumed): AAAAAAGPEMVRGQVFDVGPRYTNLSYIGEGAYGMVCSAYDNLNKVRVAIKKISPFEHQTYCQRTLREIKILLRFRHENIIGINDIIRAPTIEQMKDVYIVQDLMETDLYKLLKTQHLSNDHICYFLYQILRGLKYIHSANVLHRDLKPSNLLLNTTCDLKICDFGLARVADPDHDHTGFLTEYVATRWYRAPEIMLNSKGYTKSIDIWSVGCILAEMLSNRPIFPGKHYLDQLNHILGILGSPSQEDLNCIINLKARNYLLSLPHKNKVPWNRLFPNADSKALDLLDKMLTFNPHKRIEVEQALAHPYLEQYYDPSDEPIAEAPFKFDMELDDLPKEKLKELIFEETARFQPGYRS
# Procedure: as §1
# Estrogen ERα = Estrogen ERα (Homo sapiens, UniProt P03372); experiment: Safety screen; format: binding
# Chain of Estrogen ERα (P03372 whole entry): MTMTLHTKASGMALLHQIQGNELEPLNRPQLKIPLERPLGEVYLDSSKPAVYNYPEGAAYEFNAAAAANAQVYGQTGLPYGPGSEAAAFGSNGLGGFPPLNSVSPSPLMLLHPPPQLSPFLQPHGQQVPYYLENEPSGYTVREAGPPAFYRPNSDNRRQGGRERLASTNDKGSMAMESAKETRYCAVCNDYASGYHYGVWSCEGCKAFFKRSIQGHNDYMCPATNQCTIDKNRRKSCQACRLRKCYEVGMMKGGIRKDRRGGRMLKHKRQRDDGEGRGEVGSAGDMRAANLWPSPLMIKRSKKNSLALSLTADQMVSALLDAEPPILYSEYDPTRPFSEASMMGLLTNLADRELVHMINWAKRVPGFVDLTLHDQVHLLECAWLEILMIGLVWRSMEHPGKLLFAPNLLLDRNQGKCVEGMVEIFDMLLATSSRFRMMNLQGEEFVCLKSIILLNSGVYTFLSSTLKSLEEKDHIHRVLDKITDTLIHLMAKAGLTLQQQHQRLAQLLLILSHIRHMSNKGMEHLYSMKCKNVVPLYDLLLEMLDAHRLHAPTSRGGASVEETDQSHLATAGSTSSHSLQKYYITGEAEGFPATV
# Procedure: as §3
# STK39(h) = STK39(h) (Homo sapiens, UniProt Q9UEW8); experiment: Kinase Profiler; format: biochemical
# Procedure: as §1
# DCAMKL1(h) = DCAMKL1(h) (Homo sapiens, UniProt O15075); experiment: Kinase Profiler; format: biochemical
# Chain of DCAMKL1(h) (O15075 whole entry): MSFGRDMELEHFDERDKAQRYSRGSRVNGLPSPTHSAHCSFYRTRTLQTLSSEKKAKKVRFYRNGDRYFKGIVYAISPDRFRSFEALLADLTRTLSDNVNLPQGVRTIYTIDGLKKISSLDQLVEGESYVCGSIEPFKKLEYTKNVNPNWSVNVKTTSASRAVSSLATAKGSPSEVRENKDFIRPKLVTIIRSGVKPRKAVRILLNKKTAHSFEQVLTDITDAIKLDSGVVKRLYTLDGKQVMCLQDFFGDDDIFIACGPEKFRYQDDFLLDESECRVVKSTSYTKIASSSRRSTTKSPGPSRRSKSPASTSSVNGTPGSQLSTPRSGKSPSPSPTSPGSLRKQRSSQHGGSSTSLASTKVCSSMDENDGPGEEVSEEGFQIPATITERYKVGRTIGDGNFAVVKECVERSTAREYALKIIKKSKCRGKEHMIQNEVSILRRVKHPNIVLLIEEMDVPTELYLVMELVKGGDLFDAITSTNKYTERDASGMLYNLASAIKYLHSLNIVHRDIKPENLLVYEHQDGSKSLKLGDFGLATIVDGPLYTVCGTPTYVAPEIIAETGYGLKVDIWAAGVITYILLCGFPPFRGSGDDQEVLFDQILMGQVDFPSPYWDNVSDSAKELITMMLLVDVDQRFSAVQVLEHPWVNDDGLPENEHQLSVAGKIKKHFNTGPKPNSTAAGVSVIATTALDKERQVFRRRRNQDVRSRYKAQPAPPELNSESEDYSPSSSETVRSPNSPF
# Procedure: as §2
structure (smiles),measurement,setting,value
COc1ccc(OC)c(NS(=O)(=O)c2ccc(NC(=O)CCSc3ccc(C)cc3)cc2)c1 [Compound A41],Activity(%),LOK(h),112%
same,Activity(%),CaMKIIδ(h),92%
same,Activity(%),B-Raf(h),90%
same,Inhibition of RAC1 activity (nucleotide exchange assay),RAC1,46%
same,TRIO-induced GDP dissociation,"RAC1; A41 5 μM, mant-GDP-bound RAC1, GTP 1 μM",no effect
same,inhibitory effect on TRIO-induced nucleotide exchange,"RAC1; A41 5 μM, mant-GTP 5 μM",abolished
same,inhibitory effect on TRIO-induced nucleotide exchange,"RAC1; A41 5 μM, mant-GTP increased from 1 to 2.5 μM",strongly decreased
same,plateau (Kmax) of nucleotide exchange,"RAC1; TIAM DH-PH 10 nM, mant-GTP 1 μM, concentration-dependent",decreased the plateau
same,spontaneous activity of RAC1,RAC1; no GEF,without affecting
same,Activity(%),NEK7(h),97%
same,Activity(%),EphA7(h),108%
same,% inh.,Adrenergic α2A,29%
same,% inh.,"Opiate δ1 (OP1, DOP)",6%
same,Activity(%),PrKX(h),98%
same,Activity(%),MAPK2(m),108%
same,% inh.,Estrogen ERα,10%
same,Activity(%),STK39(h),91%
same,Activity(%),DCAMKL1(h),99%
